The subject of test [1] is neointima formation. As to conditions: rats; cited from earlier work.
Test [2] has as its target T1, CDK2/cyclinA (Homo sapiens, UniProt P24941).
T1 construct: purchased Millipore
The test can be described thus: CDK2/cyclinA kinase assay, IMAP fluorescence polarization. Type of test: biochemical. In outline:
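Recombinant purified enzyme reactions run 2 hours at room temperature with 1% DMSO final. Stopped with 1× Developer buffer (100% A) and IMAP beads 1/400, then 1 hour more before fluorescence polarization read. IC50 from mP values versus log concentration.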
A general note: Fluorescence polarisation rises when a labelled molecule tumbles more slowly, as on binding a larger partner.

In test [3] the target is CDK4 (Homo sapiens, UniProt P11802). Description: CDK4 kinase assay (Table F). Type of test: biochemical.
Sequence of CDK4 (P11802 whole entry, species assumed): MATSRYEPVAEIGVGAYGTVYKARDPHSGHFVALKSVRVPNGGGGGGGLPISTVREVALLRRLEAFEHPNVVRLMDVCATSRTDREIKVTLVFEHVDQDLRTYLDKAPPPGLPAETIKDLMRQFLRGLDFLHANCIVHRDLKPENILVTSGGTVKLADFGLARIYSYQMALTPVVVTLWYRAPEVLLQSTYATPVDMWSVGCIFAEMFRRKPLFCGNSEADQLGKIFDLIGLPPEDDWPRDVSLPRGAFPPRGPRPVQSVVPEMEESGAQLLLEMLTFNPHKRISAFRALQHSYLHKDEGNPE
Sequence of CDK4 (P24385 whole entry partner, species assumed): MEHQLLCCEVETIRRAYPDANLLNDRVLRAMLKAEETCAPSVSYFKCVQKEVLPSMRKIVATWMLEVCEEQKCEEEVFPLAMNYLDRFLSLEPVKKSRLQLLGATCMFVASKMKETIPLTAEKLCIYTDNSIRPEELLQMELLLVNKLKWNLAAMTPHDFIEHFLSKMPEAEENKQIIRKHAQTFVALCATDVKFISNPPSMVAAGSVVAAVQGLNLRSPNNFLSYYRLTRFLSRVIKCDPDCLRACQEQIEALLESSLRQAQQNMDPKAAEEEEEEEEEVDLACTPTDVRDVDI
Test [4] deals with CDK5 (Homo sapiens, UniProt Q00535). The test can be described thus: CDK5 kinase assay (Table F). Format: biochemical.
Sequence of CDK5 (Q00535 whole entry, species assumed): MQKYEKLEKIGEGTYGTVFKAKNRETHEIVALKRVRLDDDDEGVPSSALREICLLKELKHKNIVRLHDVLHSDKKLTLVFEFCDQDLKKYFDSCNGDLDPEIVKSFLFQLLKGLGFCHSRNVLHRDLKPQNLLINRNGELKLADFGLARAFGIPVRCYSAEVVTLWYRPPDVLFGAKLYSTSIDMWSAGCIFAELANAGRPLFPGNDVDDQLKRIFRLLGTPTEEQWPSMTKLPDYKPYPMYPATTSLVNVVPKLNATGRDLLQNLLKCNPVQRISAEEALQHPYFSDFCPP
Sequence of CDK5 (Q15078 whole entry partner, species assumed): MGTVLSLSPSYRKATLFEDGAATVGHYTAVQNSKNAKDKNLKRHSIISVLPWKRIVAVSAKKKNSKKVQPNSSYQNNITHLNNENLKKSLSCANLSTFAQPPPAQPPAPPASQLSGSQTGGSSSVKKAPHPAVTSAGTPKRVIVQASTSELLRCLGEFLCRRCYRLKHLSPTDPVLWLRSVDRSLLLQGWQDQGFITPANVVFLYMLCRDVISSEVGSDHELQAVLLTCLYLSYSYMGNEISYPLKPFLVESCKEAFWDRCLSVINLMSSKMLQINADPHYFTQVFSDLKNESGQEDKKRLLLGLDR
Test [5] addresses T2, CDK7/cyclinH/MAT1 (Homo sapiens, UniProt P50613).
T2 construct: purchased Millipore
Description: CDK7/cyclinH/Mat1 kinase assay, IMAP fluorescence polarization. Type of test: biochemical. As for the experimental part:
Kinase assays were performed on recombinant purified enzymes using the non-radioactive IMAP fluorescence polarization assay format.
Compound stocks were prepared and diluted in DMSO and were added to kinase reactions at a 1/100 dilution for a final concentration of 1% DMSO. The components were added together to final concentrations listed in the tables below and incubated for two hours at room temperature.
The reactions were stopped by addition of stop solution.
CDK9/CDK1/CDK7: final stop concentration is 1× Developer buffer (85% A/15% B), IMAP beads 1/400
The samples were allowed to incubate for one more hour at room temperature and then the fluorescence polarization was measured. The plate normalized millipolarization (mP) values were plotted against the log of compound concentration for each compound and IC50 values were calculated using the spotfire IC50 calculator and confirmed by visual analysis.

The target of test [6] is T3, CDK9/cyclinT1 (Homo sapiens, UniProt P50750).
T3 construct: purchased Millipore
T3 sequence (P50750 whole entry): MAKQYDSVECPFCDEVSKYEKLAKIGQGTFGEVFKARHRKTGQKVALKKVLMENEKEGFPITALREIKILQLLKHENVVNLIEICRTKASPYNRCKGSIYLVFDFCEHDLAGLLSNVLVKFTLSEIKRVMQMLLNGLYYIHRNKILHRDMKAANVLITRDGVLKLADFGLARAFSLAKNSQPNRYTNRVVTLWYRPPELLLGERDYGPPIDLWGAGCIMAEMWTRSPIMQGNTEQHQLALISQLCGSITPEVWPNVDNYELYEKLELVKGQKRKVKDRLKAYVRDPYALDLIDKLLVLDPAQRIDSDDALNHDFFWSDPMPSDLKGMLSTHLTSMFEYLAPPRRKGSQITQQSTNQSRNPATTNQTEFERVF
T3 sequence (O60563 whole entry partner): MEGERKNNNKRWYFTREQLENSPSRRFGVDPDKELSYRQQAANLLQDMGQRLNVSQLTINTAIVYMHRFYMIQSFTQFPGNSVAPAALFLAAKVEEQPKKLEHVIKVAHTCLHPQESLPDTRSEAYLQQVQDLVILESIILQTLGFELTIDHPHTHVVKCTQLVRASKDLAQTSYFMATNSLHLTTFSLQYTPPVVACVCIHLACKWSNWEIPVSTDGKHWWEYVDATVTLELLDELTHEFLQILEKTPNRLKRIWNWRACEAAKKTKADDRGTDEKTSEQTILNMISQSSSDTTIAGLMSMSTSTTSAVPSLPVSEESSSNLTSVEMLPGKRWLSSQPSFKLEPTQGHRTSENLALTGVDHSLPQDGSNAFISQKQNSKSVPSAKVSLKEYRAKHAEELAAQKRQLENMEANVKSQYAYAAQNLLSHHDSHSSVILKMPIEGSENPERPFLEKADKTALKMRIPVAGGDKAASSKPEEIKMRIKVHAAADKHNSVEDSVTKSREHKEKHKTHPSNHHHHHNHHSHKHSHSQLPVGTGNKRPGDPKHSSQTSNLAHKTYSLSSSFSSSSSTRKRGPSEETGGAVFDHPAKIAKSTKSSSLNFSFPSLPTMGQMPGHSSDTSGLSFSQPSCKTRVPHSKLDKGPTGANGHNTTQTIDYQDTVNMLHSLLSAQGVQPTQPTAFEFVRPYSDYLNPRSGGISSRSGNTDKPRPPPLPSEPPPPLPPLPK
Description: CDK9/cyclinT1 kinase assay, IMAP fluorescence polarization. Type of test: biochemical. An outline of the steps: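 Recombinant purified enzyme complexes assayed by IMAP fluorescence polarization with 1% final DMSO, 2 h at room temperature; stopped with 1× Developer buffer (85% A/15% B) plus IMAP beads 1/400, then 1 h further at room temperature. IC50 from normalized mP versus log compound concentration.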

Test [7] has as its target T4, CDK1/cyclinB (Homo sapiens, UniProt P06493).
T4 construct: purchased Millipore
The test can be described thus: CDK1/cyclinB kinase assay, IMAP fluorescence polarization. The settings on record: read-out: CDK1 IC50. Type of test: biochemical. An outline of the steps:
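IMAP fluorescence polarization assay on recombinant purified enzyme, compounds at final 1% DMSO. Reaction run 2 h at room temperature, stopped, held 1 h more before reading polarization.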

Test [8] relates to RNA Polymerase II CTD Serine2 Phosphorylation. Description: H5 (Ser2) Ab High Content Screen: RNA Polymerase II CTD Serine2 Phosphorylation Assay in Hep3B cells. Format: cell-based. The settings on record: Homo sapiens, 2 hours with compound, H5 antibody staining. How it is done: H5 (also referred as Ser2) Ab High Content Screen: RNA Polymerase II CTD Serine2 Phosphorylation Assay
1. Cells are plated into 384 well plates: 30 μl of Hep3B cells (4,000 cells/30 μl) in DMEM with 3% FBS are plated into wells of a tissue culture treated clear bottomed 384 well plate. Cells are allowed to adhere during an overnight incubation.
2. Cells are treated with compounds for two hours: 10 μl of DMEM with 3% FBS is added to each well with a final concentration of DMSO equal to 1%. Cells are incubated with compounds for 2 hours.
3. Cells are fixed and permeabilized. Cells are washed with 30 mM HEPES pH=7.3 then fixed in 4% paraformaldehyde in 30 mM HEPES pH=7.3 for one hour at room temperature. The fix is removed by washing the cells with Tris buffered saline (TBS) and the cells are permeabilized by incubation in TBS with 0.5% triton X-100 for 30 minutes at room temperature. Triton is removed by washing the cells with TBS.
4. […] Incubate primary H5 Ab (1/250 ) overnight at 4 degrees in TBS with 1% BSA and 0.1% Tween-20. The next day wash cells with TBS. […] Wash cells with PBS.
5. Measure staining using the In-cell Analyzer system from GE Healthcare.

T2 sequence (P50613 whole entry): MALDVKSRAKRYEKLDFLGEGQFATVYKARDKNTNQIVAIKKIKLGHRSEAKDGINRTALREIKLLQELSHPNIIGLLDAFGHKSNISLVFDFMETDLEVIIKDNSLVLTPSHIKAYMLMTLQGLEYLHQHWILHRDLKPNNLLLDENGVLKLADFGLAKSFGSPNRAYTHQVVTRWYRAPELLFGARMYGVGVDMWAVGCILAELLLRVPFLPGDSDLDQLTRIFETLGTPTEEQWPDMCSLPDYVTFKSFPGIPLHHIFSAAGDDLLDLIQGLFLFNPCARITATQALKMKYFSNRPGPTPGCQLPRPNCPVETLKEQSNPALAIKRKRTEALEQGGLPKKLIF
T2 sequence (P51946 whole entry partner): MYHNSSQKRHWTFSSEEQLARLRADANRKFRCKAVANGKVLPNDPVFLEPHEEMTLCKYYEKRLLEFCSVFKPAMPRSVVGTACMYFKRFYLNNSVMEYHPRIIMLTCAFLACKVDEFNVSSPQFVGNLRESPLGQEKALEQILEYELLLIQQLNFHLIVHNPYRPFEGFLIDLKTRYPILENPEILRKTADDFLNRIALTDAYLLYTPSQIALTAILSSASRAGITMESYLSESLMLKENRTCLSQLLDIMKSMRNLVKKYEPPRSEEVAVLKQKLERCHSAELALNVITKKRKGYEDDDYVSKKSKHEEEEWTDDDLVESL
T2 sequence (P51948 whole entry partner): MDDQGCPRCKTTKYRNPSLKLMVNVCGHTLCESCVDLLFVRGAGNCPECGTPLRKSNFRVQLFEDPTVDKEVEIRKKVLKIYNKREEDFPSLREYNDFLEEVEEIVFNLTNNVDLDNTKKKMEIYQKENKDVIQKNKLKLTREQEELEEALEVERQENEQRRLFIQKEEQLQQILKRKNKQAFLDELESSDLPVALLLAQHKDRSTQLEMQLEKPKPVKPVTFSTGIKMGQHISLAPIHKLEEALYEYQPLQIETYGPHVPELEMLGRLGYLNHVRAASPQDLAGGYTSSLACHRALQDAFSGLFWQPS
T4 sequence (P06493 whole entry): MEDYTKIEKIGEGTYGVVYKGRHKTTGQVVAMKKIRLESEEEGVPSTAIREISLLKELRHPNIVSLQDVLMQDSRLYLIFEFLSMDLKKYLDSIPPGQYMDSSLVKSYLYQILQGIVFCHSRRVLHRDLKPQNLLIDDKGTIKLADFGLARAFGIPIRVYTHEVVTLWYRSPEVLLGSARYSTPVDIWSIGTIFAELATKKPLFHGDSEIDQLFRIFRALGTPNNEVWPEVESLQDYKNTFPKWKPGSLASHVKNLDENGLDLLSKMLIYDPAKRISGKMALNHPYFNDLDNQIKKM
T4 sequence (P14635 whole entry partner): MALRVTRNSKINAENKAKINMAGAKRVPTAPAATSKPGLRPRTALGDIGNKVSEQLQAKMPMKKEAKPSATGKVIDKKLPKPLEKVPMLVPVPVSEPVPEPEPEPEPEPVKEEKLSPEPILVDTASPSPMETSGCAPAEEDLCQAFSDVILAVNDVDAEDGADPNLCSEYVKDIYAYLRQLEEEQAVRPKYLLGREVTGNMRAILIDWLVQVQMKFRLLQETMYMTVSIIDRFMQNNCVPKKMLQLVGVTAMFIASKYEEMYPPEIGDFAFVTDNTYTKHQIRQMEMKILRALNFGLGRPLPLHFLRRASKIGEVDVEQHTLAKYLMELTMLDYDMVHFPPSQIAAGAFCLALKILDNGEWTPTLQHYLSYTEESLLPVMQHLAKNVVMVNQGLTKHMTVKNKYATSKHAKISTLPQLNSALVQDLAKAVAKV

As for `COc1ccc(CNc2nc(N(CCO)CCO)nc3c2ncn3C(C)C)cc1` [CVT-313], in test [1], the “inhibition of neointima formation” value is on record as “greater than 80%”.
One may read the IC50 as the point on the concentration scale where inhibition reaches its midpoint. In the case of `COc1ccc(-c2ccnc(Nc3cccc(S(C)(=O)=O)c3)n2)c(OC)n1` [Compound 119, [4-(2,6-Dimethoxy-pyridin-3-yl)-pyrimidin-2-yl]-(3-methanesulfonyl-phenyl)-amine], the IC50 is below 5 µM in test [2]; 15 to 50 µM in test [3]; 5 to 15 µM in test [4]; above 50 µM in test [5]; below 5 µM in test [6]; below 5 µM in test [7]. Further, in test [8], the concentration for half-maximal inhibition (IC50) is above 50 µM.

Source of the values: US20100048597A1 (Novartis AG, priority 2006, published 2010).
